Source: US7456156B2, “Aryl boronic acids for treating obesity” (Genzyme Corporation, priority 2001, dated 2008)

Tested on: fat absorption through lipase inhibition
Experiment: In vivo infusion assay in rats (olive oil gavage, triglyceride recovered from intestinal contents)
Conditions: rats gavaged with 4 mL olive oil emulsion with drug after 18 hour fast, intestinal contents after 8 hours; for In Vivo Infusion Assay in Rats ED50 (mg/g fat) or estimate: dose at half the maximum recoverable triglyceride
Method: Test compounds were dissolved in DMSO or dionized water. […] Samples were stored at −80° C. until lyophilization.
3 milliliters of hexane was added to each tube then it was capped and vortexed for 15 seconds at high speed. 3 milliliters of 1 N HCl was added then samples were subjected to wrist-action shaking for 1 hour.
The data was expressed as follows. […] The milligrams/liters values obtained from the HPLC analysis were entered.

| Molecule | In Vivo Infusion Assay in Rats ED50 (mg/g fat) or estimate | In Vivo Infusion Assay in Rats Ed50 (mg/kg body wt) or estimate (dose per body weight) | ED50 (Rattus norvegicus, po, dose per body weight, read-out: In Vivo Infusion Assay in Rats Ed50 (mg/kg body wt) or estimate) |
| --- | --- | --- | --- |
| 4-(14′-trimethylammonium-3′-thia-1′-keto-tridecyl)-3-fluorophenyl-boronic acid bromide | 2 mg/g fat | 15 mg/kg body wt | – |
| C[N+](C)(C)CCCCCCCCCCCSCC(=O)c1ccc(B(O)O)cc1 [4-(14′-trimethylammonium-3′-thia-1′-keto-tetradecyl)-phenyl-boronic acid bromide] | 8 mg/g fat | – | 60 mg/kg |
| 4-(14′-triethylammonium-3′-thia-1′-keto-tetradecyl)-3-phenyl-boronic acid bromide | 11 mg/g fat | 82.5 mg/kg body wt | – |
